In brackets after ≈: the same amount, converted by molar mass. Read-outs that look alike come from different tables or passages of the source.
Columns and labels:
Parainfluenza-3 virus = experiment: organism not typed; assay type: cell-based; settings: Vero
Reovirus-1 = experiment: organism not typed; assay type: cell-based; settings: Vero
Coxsakie virus B4 = experiment: organism not typed; assay type: cell-based; settings: Vero
[1] = test system: Herpes simplex virus-1TK- KOS ACV; experiment: organism not typed; assay type: cell-based; settings: HEL
HIV-1 IIIB strain = assay type: cell-based; settings: for IC50: MTT method, Exp_nr P3.4401 and P3.4406
HIV-1 ROD strain = assay type: cell-based; settings: for IC50: MTT method, Exp_nr P3.4402 and P3.4407
MT-4 cells = settings: MTT method
in vitro [2] = settings: human, CC50, MT-4 cells, MTT method; IIIB experiments P3.4401 and P3.4406
[3] = Partition coefficient by stir-flask method, octanol-water system; settings: octanol / 0.1 NaOH solution, 25 °C, UV
E. coli = experiment: Antibacterial microdilution broth susceptibility test; assay type: cell-based, Escherichia coli; settings: 24 h, Gram-negative E. coli, 37 °C, no turbidity
HPV = settings: ref Singh et al. unpublished results; cited from earlier work
[4] = test system: Gram-positive cocci and Gram-negative bacilli; experiment: Antibacterial activity over all strains tested; assay type: cell-based; settings: in vitro
in vitro [5] = settings: African green monkey, CC50, Vero cells, MTS assay
S. viridans = experiment: Antibacterial microdilution broth susceptibility test; assay type: cell-based, Streptococcus viridans; settings: Gram-positive S. viridans; 37 °C, 24 h, no turbidity
K. pneumoniae = experiment: as above; assay type: cell-based, Klebsiella pneumoniae; settings: Gram-negative K. pneumoniae; 37 °C, 24 h, no turbidity
P. miraleilis = experiment: as above; assay type: cell-based, Proteus mirabeilis; settings: Gram-negative P. miraleilis; 37 °C, 24 h, no turbidity
[6] = test system: Feline corona virus (FIPV); assay type: cell-based; settings: virus N, CRFK cells, MTS assay
Feline herpes virus = assay type: cell-based; settings: virus O, CRFK cells, MTS assay
CRFK cells = settings: MTS assay
[7] = ROD experiments P3.4402 and P3.4407

Row | Molecule | EC50 (Parainfluenza-3 virus) [nM] | EC50 (Reovirus-1) [nM] | EC50 (Coxsakie virus B4) [nM] | EC50 [1] [nM] | IC50 (HIV-1 ROD strain; HIV-1 ROD, MT-4 cells) [nM] | CC50 (MT-4 cells; [7]) [nM] | other results
1 | Nc1ncnc2c1ncn2C[C@H](O)CO [(S)-DHPA, reference compound] | > 250000 | > 250000 | > 250000 |  |  |  | 
2 | COc1cc(/C=C/C(=O)CC(=O)/C=C/c2ccc(OC(=O)[C@H](Cc3ccccc3)NC(=O)[C@@H](N)Cc3c[nH]c4ccccc34)c(OC)c2)ccc1OC(=O)[C@H](Cc1ccccc1)NC(=O)[C@@H](N)Cc1c[nH]c2ccccc12 [Compound 2, 1,7-Bis-[(4,4-di-O-tryptophanylphenylalanine)3-methoxyphenyl]-1,6-heptadiene-3,5-dione] | > 38 | > 19 | > 19 | > 38 | > 103 | 103 | SI (Selectivity index: CC50/IC50 ratio) (HIV-1 IIIB strain): <1; IC50 (HIV-1 IIIB strain; HIV-1 IIIB, MT-4 cells): > 93 nM; SI (Selectivity index: CC50/IC50 ratio) (HIV-1 ROD strain): <1; CC50 (in vitro [2]): 94 nM; P (partition coefficient), stir-flask method [3]: 5.50 × 10^2
3 | CCCCCCCCCC(=O)Oc1ccc(/C=C/C(=O)CC(=O)/C=C/c2ccc(OC(=O)CCCCCCCCC)c(OC)c2)cc1OC [Compound 3, 1,7-Bis-[(4,4-di-O-decanoyl)3-methoxyphenyl]-1,6-heptadiene-3,5-dione] |  |  |  |  |  |  | MIC (E. coli; Escherichia coli): 0.369 µM (≈ 0.25 µg/mL); P (partition coefficient), stir-flask method [3]: 1.69 × 10^8
4 | CCCCCCCCCCCCCCCC(=O)Oc1ccc(/C=C/C(=O)CC(=O)/C=C/c2ccc(OC(=O)CCCCCCCCCCCCCCC)c(OC)c2)cc1OC [Compound 4, 1,7-Bis-[(4,4-di-O-pamitoyl)3-methoxyphenyl]-1,6-heptadiene-3,5-dione] |  |  |  |  |  |  | MIC (E. coli; Escherichia coli): 0.591 µM (≈ 0.5 µg/mL)
5 | COc1cc(/C=C/C(=O)CC(=O)/C=C/c2ccc(OC(=O)CCC(NC(=O)c3ccc(NCc4cnc5nc(N)[nH]c(=O)c5n4)cc3)C(=O)O)c(OC)c2)ccc1OC(=O)CCC(NC(=O)c1ccc(NCc2cnc3nc(N)[nH]c(=O)c3n2)cc1)C(=O)O (stereo not drawn) [Compound 6, 1,7-Bis-[(4,4-di-O-bis-(γ,γ)-folyl)3-methoxyphenyl]-1,6-heptadiene-3,5-dione] | > 82 | > 82 | > 82 | > 82 | > 50 | 50 | IC50 (HIV-1 IIIB strain; HIV-1 IIIB, MT-4 cells): > 46 nM; Activity against HPV causing cervical cancer (HPV): very active
6 | COc1cc(/C=C/C(=O)C(CCOC(=O)CCC(NC(=O)c2ccc(NCc3cnc4nc(N)[nH]c(=O)c4n3)cc2)C(=O)O)C(=O)/C=C/c2ccc(O)c(OC)c2)ccc1O (stereo not drawn) [Compound 8, 1,7-Bis-[(4-hydroxy-3-methoxyphenyl)]-1,6-heptadiene-C^4-ethyl-O-folyl-3,5-dione] | > 11 | > 11 | > 11 | > 11 | > 62 | 62 | 
7 | COc1cc(/C=C/C(=O)CC(=O)/C=C/c2ccc(OCCOC(=O)CCC(NC(=O)c3ccc(NCc4cnc5nc(N)[nH]c(=O)c5n4)cc3)C(=O)O)c(OC)c2)ccc1O (stereo not drawn) [Compound 10, 1-(4-Hydroxy-3-methoxyphenyl)-7-(4-O-ethyl-O-folyl-3-methoxyphenyl)-1,6-heptadiene-3,5-dione] | > 119 | > 119 | > 119 | > 119 | > 88 | 88 | SI (Selectivity index: CC50/IC50 ratio) (HIV-1 IIIB strain; HIV-1 IIIB, MT-4 cells): <1; IC50 (HIV-1 IIIB strain; HIV-1 IIIB, MT-4 cells): > 58 nM; SI (Selectivity index: CC50/IC50 ratio) (HIV-1 ROD strain; HIV-1 ROD, MT-4 cells): <1; CC50 (MT-4 cells; IIIB experiments P3.4401 and P3.4406): 58 nM
8 | COc1cc(/C=C/C(=O)CC(=O)/C=C/c2ccc(O)c(OC)c2)ccc1O [Curcumin, 1,7-bis(4-hydroxy-3-methoxyphenyl)-1,6-heptadiene-3,5-dione, reference compound] | > 10 | > 10 | > 10 |  |  |  | MIC range over all strains [4]: 1.23 to 2.47 µM; P (partition coefficient), stir-flask method [3]: 1.70 × 10^2
9 | NC(=O)c1ncn([C@@H]2O[C@H](CO)[C@@H](O)[C@H]2O)n1 [Ribavirin] |  | 250000 | > 250000 |  |  |  | CC50 (in vitro [5]; column J (Reovirus-1)): > 250000 nM; CC50 (in vitro [5]; column K (Sindbis virus)): > 250000 nM; CC50 (in vitro [5]; column L (Coxsakie virus B4)): > 250000 nM; CC50 (in vitro [5]; column M (Punta toro virus)): > 250000 nM
10 | Gentamycin sulfate |  |  |  |  |  |  | MIC (S. viridans): >1.73 µM; MIC (E. coli): >1.73 µM; MIC (K. pneumoniae): >1.73 µM; MIC (P. miraleilis): >1.73 µM
11 | UDA: reference in Table 2 (CRFK), not defined in the paper; presumably a plant lectin (protein, UniProt P11218 24-372, looked up) Lectin/endochitinase 1: QRCGSQGGGGTCPALWCCSIWGWCGDSEPYCGRTCENKCWSGERSDHRCGAAVGNPPCGQDRCCSVHGWCGGGNDYCSGSKCQYRCSSSVRGPRVALSGNSTANSIGNVVVTEPLFDQMFSHRKDCPSQGFYSYHSFLVAAESFPAFGTIGDVATRKREVAAFLAHISQATSGERSDVENPHAWGLCHINTTTVTENDFCTSSDWPCAAGKKYSPRGPIQLTHNFNYGLAGQAIGEDLIQNPDLVEKDPIISFKTALWFWMSQHDNKPSCHDIVLNANSAANRIPNKGVIGNIISRAFGHDDFAVRSSSIGFYKRYCDMLGVSYGHDLKYWFDNTPSSEFQRIQMRVAA |  |  |  |  |  |  | EC50 [6]: 1300 nM; EC50 (Feline herpes virus): 2900 nM; CC50 (CRFK cells; column N (Feline corona virus FIPV)): > 100000 nM; CC50 (CRFK cells; column O (Feline herpes virus)): > 100000 nM

— article PMC7115498 (European Journal of Medicinal Chemistry, 2009)
